Patent publication US20220064196A1, “EGFR Inhibitors, Compositions and Methods Thereof” (Betta Pharmaceuticals Co., Ltd., priority 2019, published 2022)
Read-outs that look alike come from different tables or passages of the source.

How the values were obtained:
[1] = target: EGFR L858R/T790M/C797S (Homo sapiens, UniProt P00533, C797S/L858R/T790M); test: Kinase assay (mobility shift), EGFR L858R/T790M/C797S; assay type: biochemical
Experimental: [Worded in the source for another variant; this variant is reported under the same test.] (§1) Test 1 Kinase Assay for EGFR Del19/T790M/C797S and EGFR Wildtype
(§2) Enzyme reaction protocol are as follows:
(§3) 1. Preparing 1* Kinase buffer as followed.
(§4) 2. Preparing Compound Concentration Gradient: Compounds were tested at a concentration of 300 nM, diluted to 100-fold final concentration in 100% DMSO solution in 96-well plates, and compounds were diluted 3 times with Precision, 10 concentrations. Each concentration of the compound was then further diluted to a 5-fold final concentration of the intermediate dilution solution using 1* Kinase buffer.
(§5) 3.5 μL of each of the prepared intermediate dilution compounds was separately added to the compound wells of the 384-well plate, and each concentration was tested for duplicate wells; 5 μL of 5% DMSO was added to the negative control wells and the positive control wells, respectively.
(§6) 4. 2.5-fold final concentration of the kinase solution was prepared using 1*Kinase buffer.
(§7) 5. Add 10 μL of 2.5-fold final concentration of kinase solution to the compound well and positive control well; add 10 μL of 1*Kinase buffer to the negative control well.
(§8) 6. Centrifuge at 1000 rpm for 30 seconds, shake the reaction plate and incubate for 10 minutes at room temperature.
(§9) 7. A mixed solution of 2.5 times the final concentration of ATP and Kinase substrate (5-FAM-EEPLYWSFPAKKK-CONH2) was prepared using 1*Kinase buffer.
(§10) 8. 10 μL of a 2.5-fold final concentration of a mixed solution of ATP and a substrate was added to initiate the reaction.
(§11) 9. Centrifuge the 384-well plate at 1000 rpm for 30 seconds, mix by shaking, and incubate at room temperature for the corresponding time.
(§12) 10. Add 30 μL of the stop solution to stop the kinase reaction, centrifuge at 1000 rpm for 30 seconds, and mix by shaking.
(§13) 11. Read the conversion rate with Caliper EZ Reader.
(§14) Convert conversion values to inhibition values:
(§15) Percent inhibition 32 (max-conversion)/(max-min)*100.
(§16) “max” stands for the mean value of the positive control well ratio; “min” stands for the mean value of the negative control well.
(§17) Fit the data in log(inhibitor) vs. response Variable slope of GraphPad Prism 5 to obtain IC50 values.
(§18) Equation used is: Y=Bottom+(Top-Bottom)/(1+(IC50/X)^HillSlope)

[2] = target: EGFR WT (Homo sapiens, UniProt P00533); test: Kinase assay (mobility shift), EGFR wildtype; assay type: biochemical; conditions: top concentration 300 nM
Experimental: as §1, §2, §3, §4, §5, §6, §7, §8, §9, §10, §11, §12, §13, §14, §15, §16, §17, §18

[3] = target: Ba/F3-Del19/T790M/C797S (Homo sapiens, UniProt P00533, T790M/C797S, cells depend on it, form not given); test: Ba/F3-Del19/T790M/C797S cells proliferation assay (CellTiter Glo); assay type: cell-based; conditions: cell proliferation, 72 h, read-out: Ba/F3-Del19/T790M/C797S IC50
Experimental: (§19) a) The medium was preheated in a 37°0 C. water bath in advance.
(§20) b) Remove the cryogenic vials from the liquid nitrogen tank, quickly put it into a 37° C. water bath, and completely melt it in 1 min.
(§21) c) Transfer the cell suspension to a 15 mL centrifuge tube containing 8 mL medium, centrifuge 1000 rpm, 5 min.
(§22) d) Discard the supernatant, resuspend the cells in 1 mL medium, and transfer to a 75 cm^2 flask containing 15 mL medium, culture the cells in an incubator at 37° C., 5% CO2.
(§23) a) The medium was preheated in a 37° C. water bath in advance.
(§24) b) Collect cell to a 15 mL centrifuged tube, centrifuge at 1000 rpm for 5 min. Discard the supernatant, count, and make the cell density at 1×10^4 cells/mL, then place it in a 37° C., 5% CO2 incubator.
(§25) a) The test compound (20 mM stock solution) was diluted to 200uM with 100% DMSO as starting concentration then 3-fold serial diluted with “9+0” concentrations. in a 96-well dilution plate (Cat # P-05525, Labcyte);
(§26) b) The above compound solution was diluted 1:20 times with culture medium to prepare a 10 fold working solution;
(§27) a) Take cells in log phase growth, centrifuge at 1000 rpm for 5 min, then resuspend the cells with culture medium, then count cells;
(§28) b) Cells were seeded to 96-well cell culture plate with density at 2000 cells/well;
(§29) a) Compounds prepared at step 2 were added to cell plate with 15 μL per well, the final concentrations were 1000,333, 111.1, 37,12.3, 4.1, 1.4, 0.5, 0.2 and 0 nM, and the final concentration of DMSO was 0.5%. The blank control well was a culture medium (0.5% DMSO);
(§30) b) The cells were incubated for an additional 72 h in the incubator.
(§31) a) Remove the 96-well cell culture plate and add 50 μl of CTG reagent (CellTiter Glo kit, promega, Cat # G7573).
(§32) b) Plate was shaked for 2 min and then let it cool for 10 min at room temperature.
(§33) c) The Luminescence signal value was read using a PerkinElmer reader. Experimental data analysis
(§34) Data were analyzed using GraphPad Prism 6.0 software to obtain a fitted curve of compound activity.
(§35) Fit the Compound IC50 from non-linear regression equation:
(§36) Y=Bottom+(Top-Bottom)/(1+10((LogIC50-X)×Hill Slope));
(§37) X: The log of the concentration of the compound; Y: Luminescence value.
(§38) The cells proliferation assay results are expressed with IC50, shown as Table 2.

[4] = target: Ba/F3-L858R/T790M/C797S (Homo sapiens, UniProt P00533, T790M/C797S/L858R, cells depend on it); test: Ba/F3-L858R/T790M/C797S cells proliferation assay (CellTiter Glo); assay type: cell-based; conditions: cell proliferation, 72 h, read-out: Ba/F3-L858R/T790M/C797S IC50
Experimental: as §19, §20, §21, §22, §23, §24, §25, §26, §27, §28, §29, §30, §31, §32, §33, §34, §35, §36, §37, §38

[5] = test system: A431 (WT); test: A431 cells proliferation assay (CellTiter Glo); assay type: cell-based; conditions: Homo sapiens, A-431; cell proliferation, 72 h
Experimental: Test 4 A431 Cells Proliferation Assay
DMEM and 10% FBS and 1% PS.
as §23, §20, §21, §22, §24
a) The test compound (20 mM stock solution) was diluted to 2 mM with 100% DMSO as starting concentration then 3-fold serial diluted with “9+0” concentrations. in a 96-well dilution plate (Cat # P-05525, Labcyte);
b) The above compound solution was diluted 1:40 times with culture medium to prepare a 5 fold working solution;
as §27
b) Cells were seeded to 96-well cell culture plate with density at 5000 cells/well;
a) Compounds prepared at step 2 were added to cell plate with 40 μL per well, the final concentrations were 10000, 3333,1111.1, 370.4, 123.5, 41.2, 13.7, 4.6, 1.5 and 0 nM, and the final concentration of DMSO was 0.5%. The blank control well was a culture medium (0.5% DMSO);
as §30
a) Remove the 96-well cell culture plate and add 60 μl of CTG reagent (CellTiter Glo kit, promega, Cat # G7573).
as §32
c) The Luminescence signal value was read using a PerkinElmer reader.
Experimental Data Analysis
as §34, §35
Y=Bottom+(Top-Bottom)/(1+10((LogIC50-X)×HillSlope));
as §37
The cells proliferation assay results are expressed with IC50, shown as Table 3.

[6] = Pharmacokinetic assay, oral administration; assay type: in vivo; conditions: rat, male SD rats, p.o. 5 mg/kg, plasma, formulation differs per row
Experimental: Test 5 Pharmacokinetic Assay
Male SD rats, oral administration (intragastric administration), 3 in each group. Animals administered by gavage were fasted overnight before the experiment, and the fasting time was from at least 12 hours before administration to 4 hours after administration. The blood was collected using the orbital vein. Time of blood collection by oral administration: 15 min, 30 min, 1 h, 2 h, 4 h, 7 h, 24 h. The blood collection volume was 300 uL, and after anticoagulation with 2.0% EDTA, the blood was centrifuged at 4000 rpm for 5 min, and the blood plasma was taken for about 100 uL, and placed in −20° C. for examination. The plasma sample was analyzed using liquid chromatography tandem mass spectrometry (LC-MS/MS). Plasma concentration-time data for individual animals were analyzed using WinNonlin (V4.1, Pharsight) software with a non-compartmental model and the pharmacokinetic parameters of the test compounds were calculated.

Chain of Ba/F3-Del19/T790M/C797S (P00533 with tags, fused parts or gaps DEL746-750/T790M/C797S, form open): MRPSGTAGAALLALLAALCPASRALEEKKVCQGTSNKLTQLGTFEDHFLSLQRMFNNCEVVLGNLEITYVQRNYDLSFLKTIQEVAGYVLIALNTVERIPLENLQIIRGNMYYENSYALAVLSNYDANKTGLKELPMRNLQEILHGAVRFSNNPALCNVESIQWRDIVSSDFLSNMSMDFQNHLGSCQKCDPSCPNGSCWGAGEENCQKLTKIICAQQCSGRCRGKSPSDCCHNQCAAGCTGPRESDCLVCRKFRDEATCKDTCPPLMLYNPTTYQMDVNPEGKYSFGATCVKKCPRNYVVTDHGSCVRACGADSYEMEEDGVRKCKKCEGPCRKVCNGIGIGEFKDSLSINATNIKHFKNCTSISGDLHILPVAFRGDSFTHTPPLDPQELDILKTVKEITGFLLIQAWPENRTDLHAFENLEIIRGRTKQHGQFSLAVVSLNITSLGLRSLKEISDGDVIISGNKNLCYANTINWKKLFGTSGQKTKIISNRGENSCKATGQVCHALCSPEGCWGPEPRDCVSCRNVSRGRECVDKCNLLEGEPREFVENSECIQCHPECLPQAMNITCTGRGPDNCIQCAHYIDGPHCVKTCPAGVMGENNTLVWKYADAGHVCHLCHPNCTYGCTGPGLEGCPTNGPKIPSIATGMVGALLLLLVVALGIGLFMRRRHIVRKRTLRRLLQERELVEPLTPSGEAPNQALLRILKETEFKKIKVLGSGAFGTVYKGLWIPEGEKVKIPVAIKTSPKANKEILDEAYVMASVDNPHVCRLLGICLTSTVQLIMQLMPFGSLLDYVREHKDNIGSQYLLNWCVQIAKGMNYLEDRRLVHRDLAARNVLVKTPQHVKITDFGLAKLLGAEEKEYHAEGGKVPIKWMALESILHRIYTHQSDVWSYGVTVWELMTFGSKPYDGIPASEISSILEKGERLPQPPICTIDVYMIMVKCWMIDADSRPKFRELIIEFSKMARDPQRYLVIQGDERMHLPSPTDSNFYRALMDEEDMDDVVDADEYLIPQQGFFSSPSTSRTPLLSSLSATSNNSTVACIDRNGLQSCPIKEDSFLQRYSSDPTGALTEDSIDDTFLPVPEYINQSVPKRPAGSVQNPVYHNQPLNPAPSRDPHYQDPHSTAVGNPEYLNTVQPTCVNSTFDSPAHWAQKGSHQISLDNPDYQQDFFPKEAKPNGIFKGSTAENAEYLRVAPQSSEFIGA
Chain of Ba/F3-L858R/T790M/C797S (P00533 whole entry T790M/C797S/L858R): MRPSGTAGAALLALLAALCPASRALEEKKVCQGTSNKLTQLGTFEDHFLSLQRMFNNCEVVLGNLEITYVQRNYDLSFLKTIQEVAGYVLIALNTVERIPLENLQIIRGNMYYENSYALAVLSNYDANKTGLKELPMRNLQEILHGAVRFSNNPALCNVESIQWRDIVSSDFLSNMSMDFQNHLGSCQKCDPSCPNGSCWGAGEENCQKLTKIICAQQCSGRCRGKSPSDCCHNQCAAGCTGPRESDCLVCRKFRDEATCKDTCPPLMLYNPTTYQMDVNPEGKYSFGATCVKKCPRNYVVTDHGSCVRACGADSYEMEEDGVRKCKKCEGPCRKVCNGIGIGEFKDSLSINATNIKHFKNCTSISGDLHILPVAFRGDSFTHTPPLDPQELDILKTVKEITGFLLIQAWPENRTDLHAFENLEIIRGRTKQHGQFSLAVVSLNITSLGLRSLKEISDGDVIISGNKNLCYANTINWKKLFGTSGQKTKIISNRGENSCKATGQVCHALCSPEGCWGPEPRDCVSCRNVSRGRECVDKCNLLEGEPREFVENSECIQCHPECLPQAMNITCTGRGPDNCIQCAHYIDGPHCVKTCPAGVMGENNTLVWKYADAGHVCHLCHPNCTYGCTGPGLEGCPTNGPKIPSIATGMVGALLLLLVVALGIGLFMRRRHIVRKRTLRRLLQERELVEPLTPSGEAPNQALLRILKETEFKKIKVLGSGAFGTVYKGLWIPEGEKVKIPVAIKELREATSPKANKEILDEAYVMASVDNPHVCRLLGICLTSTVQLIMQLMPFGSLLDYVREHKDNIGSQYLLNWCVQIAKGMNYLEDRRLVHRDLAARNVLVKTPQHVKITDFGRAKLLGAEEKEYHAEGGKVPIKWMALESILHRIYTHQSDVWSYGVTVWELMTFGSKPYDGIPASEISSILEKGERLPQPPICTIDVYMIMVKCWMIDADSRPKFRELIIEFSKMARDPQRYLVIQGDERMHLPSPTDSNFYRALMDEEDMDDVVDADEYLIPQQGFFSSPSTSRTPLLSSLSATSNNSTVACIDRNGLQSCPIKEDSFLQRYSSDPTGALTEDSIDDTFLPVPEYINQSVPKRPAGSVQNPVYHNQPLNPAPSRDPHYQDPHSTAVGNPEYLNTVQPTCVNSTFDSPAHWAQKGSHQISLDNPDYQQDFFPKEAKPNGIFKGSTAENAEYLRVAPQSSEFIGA
Chain of EGFR L858R/T790M/C797S (P00533 25-1210 T790M/C797S/L858R): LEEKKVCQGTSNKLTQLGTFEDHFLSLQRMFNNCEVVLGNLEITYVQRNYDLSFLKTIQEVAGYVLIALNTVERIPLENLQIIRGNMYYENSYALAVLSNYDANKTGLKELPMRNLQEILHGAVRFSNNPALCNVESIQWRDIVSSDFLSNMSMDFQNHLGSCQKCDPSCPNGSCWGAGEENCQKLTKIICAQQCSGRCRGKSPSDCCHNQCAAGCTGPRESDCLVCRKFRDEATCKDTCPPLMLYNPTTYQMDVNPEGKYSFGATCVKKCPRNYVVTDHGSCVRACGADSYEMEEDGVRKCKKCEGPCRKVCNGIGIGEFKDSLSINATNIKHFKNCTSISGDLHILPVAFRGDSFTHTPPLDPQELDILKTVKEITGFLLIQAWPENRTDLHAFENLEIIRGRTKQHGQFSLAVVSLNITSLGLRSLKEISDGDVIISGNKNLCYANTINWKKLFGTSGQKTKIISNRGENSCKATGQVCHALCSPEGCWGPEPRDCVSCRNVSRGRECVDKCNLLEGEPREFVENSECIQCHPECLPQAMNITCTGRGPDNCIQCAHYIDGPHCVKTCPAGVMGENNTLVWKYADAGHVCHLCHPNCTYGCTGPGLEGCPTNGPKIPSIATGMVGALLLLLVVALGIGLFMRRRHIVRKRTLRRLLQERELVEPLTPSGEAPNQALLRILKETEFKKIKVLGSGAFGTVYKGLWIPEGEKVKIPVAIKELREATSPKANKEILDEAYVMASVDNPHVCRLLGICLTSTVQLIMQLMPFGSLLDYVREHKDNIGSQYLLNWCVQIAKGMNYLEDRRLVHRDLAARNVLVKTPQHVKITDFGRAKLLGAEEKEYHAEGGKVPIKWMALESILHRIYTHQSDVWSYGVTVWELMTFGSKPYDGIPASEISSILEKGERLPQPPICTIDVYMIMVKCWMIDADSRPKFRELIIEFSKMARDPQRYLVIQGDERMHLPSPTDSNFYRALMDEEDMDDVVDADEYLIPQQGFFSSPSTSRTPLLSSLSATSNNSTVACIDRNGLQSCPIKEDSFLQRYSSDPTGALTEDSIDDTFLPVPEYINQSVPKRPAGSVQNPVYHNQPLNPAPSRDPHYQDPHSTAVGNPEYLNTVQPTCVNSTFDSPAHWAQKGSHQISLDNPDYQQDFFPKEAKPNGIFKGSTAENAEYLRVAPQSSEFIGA
Chain of EGFR WT (P00533 25-1210): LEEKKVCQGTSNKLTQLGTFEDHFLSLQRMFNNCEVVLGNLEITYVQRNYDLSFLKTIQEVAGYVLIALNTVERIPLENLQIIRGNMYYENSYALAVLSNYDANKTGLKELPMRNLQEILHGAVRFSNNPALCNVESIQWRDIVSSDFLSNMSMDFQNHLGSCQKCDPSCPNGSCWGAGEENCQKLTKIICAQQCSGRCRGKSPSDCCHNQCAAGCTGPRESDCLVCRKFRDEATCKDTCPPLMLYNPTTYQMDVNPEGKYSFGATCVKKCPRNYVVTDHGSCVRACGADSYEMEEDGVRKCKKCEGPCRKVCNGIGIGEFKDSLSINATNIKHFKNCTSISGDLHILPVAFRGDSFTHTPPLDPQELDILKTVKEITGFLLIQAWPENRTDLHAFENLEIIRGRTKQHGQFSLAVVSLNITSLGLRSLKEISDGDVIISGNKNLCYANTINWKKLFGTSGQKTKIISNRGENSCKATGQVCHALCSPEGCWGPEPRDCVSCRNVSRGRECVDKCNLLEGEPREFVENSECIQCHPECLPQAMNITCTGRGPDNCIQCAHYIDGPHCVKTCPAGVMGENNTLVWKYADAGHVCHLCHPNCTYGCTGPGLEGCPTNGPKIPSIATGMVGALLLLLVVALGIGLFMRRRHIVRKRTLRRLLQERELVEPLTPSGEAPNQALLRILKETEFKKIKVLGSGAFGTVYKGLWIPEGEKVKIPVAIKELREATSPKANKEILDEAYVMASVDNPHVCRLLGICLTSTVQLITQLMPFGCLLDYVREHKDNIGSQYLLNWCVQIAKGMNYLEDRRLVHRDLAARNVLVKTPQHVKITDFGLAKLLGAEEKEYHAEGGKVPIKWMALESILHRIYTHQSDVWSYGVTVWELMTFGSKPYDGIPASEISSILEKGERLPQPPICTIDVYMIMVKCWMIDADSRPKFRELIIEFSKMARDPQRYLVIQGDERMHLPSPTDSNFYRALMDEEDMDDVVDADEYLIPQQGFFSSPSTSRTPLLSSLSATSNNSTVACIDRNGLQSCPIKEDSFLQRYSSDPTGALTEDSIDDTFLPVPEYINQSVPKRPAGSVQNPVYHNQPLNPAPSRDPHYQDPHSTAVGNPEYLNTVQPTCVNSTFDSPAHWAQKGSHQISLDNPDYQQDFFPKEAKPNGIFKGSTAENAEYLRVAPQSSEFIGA

SMILES | IC50 ([1]; numeric values) [µM] | IC50 [2] [µM] | GI50 ([3]; class symbols) [µM] | GI50 ([4]; class symbols) [µM] | IC50 ([1]; class symbols) [µM] | GI50 ([3]; numeric values) [µM] | GI50 ([4]; numeric values) [µM] | IC50 [5] [µM] | AUC(0-t) [6] [ng·h/mL] | Cmax [6] [ng/mL] | Tmax [6] [h] | half-life [6] [h]
Cc1cc(Nc2ncc(F)c(Nc3ccccc3P(C)(C)=O)n2)ccc1N1CC2(CC(N)C2)C1 [Example 24, (2-((2-((4-(6-amino-2-azaspiro[3.3]heptan-2-yl)-3-methylphenyl)amino)-5-fluoropyrimidin-4-yl)amino)phenyl)dimethylphosphine oxide] | 0.018 | 0.101 | > 0.05 | > 0.05 |  |  |  |  |  |  |  | 
COc1cnc(Nc2ccc(N3CCC4(CC3)CC(N)C4)c(C)c2)nc1Nc1ccccc1P(C)(C)=O [Example 27, (2-((2-((4-(2-amino-7-azaspiro[3.5]nonan-7-yl)-3-methylphenyl)amino)-5-methoxypyrimidin-4-yl)amino)phenyl)dimethylphosphine oxide] | 0.0044 | 0.127 | > 0.05 | > 0.05 |  |  |  |  |  |  |  | 
COc1cnc(Nc2ccc(N3CC4(CC(N)C4)C3)c(C)c2)nc1Nc1ccccc1P(C)(C)=O [Example 23, (2-((2-((4-(6-amino-2-azaspiro[3.3]heptan-2-yl)-3-methylphenyl)amino)-5-methoxypyrimidin-4-yl)amino)phenyl)dimethylphosphine oxide] | 0.011 | 0.167 | > 0.05 | > 0.05 |  |  |  |  |  |  |  | 
Cc1cc(Nc2ncc(C#N)c(Nc3ccccc3P(C)(C)=O)n2)ccc1N1CCC2(CC1)CC(N)C2 [Example 28, 2-((4-(2-amino-7-azaspiro[3.5]nonan-7-yl)-3-methylphenyl)amino)-4-((2-(dimethylphosphoryl)phenyl)amino)pyrimidine-5-carbonitrile] |  | > 0.3 | > 0.05 | > 0.05 | > 0.01 |  |  |  |  |  |  | 
CN(C)C1CCC2(CC1)CN(c1ccc(Nc3ncc(Cl)c(Nc4ccccc4P(C)(C)=O)n3)cc1Cl)C2 [Example 10, (2-((5-chloro-2-((3-chloro-4-(7-(dimethylamino)-2-azaspiro[3.5]nonan-2-yl)phenyl)amino)pyrimidin-4-yl)amino)phenyl)dimethylphosphine oxide] | 0.0007 |  |  |  |  | 0.0102 | 0.0247 | 0.0416 | 443 | 35.1 | 4 | 9.06

The remaining compounds from weak to strong by IC50 [2], led by results:

IC50 ([1]; numeric values) [µM] | IC50 [2] [µM] | GI50 ([3]; class symbols) [µM] | GI50 ([4]; class symbols) [µM] | IC50 ([1]; class symbols) [µM] | SMILES | GI50 ([3]; numeric values) [µM] | GI50 ([4]; numeric values) [µM] | IC50 [5] [µM] | AUC(0-t) [6] [ng·h/mL] | Cmax [6] [ng/mL] | Tmax [6] [h] | half-life [6] [h]
 | 0.066 | 0.01 to 0.05 | 0.01 to 0.05 | 0.002 to 0.01 | CNC1CCC2(CC1)CN(c1ccc(Nc3ncc(Cl)c(Nc4ccccc4P(C)(C)=O)n3)cc1C)C2 [Example 2, (2-((5-chloro-2-((3-methyl-4-(7-(methylamino)-2-azaspiro[3.5]nonan-2-yl)phenyl)amino)pyrimidin-4-yl)amino)phenyl)dimethylphosphine oxide] |  |  |  |  |  |  | 
0.0032 | 0.065 | > 0.05 | > 0.05 |  | CP(C)(=O)c1ccccc1Nc1nc(Nc2ccc(N3CCC4(CC3)CC(NCCO)C4)c(Cl)c2)ncc1Cl [Example 32, (2-((5-chloro-2-((3-chloro-4-(2-((2-hydroxyethyl)amino)-7-azaspiro[3.5]nonan-7-yl)phenyl)amino)pyrimidin-4-yl)amino)phenyl)dimethylphosphine oxide] |  |  |  |  |  |  | 
 | 0.057 | > 0.05 | > 0.05 | 0.002 to 0.01 | Cc1cc(Nc2ncc(C)c(Nc3ccccc3P(C)(C)=O)n2)ccc1N1CC2(CC(N)C2)C1 [Example 22, (2-((2-((4-(6-amino-2-azaspiro[3.3]heptan-2-yl)-3-methylphenyl)amino)-5-methylpyrimidin-4-yl)amino)phenyl)dimethylphosphine oxide] |  |  |  |  |  |  | 
0.0017 | 0.037 | 0.01 to 0.05 | 0.01 to 0.05 |  | CP(C)(=O)c1ccccc1Nc1nc(Nc2ccc(N3CC4(CC(N)C4)C3)c(Cl)c2)ncc1Cl [Example 26, (2-((2-((4-(6-amino-2-azaspiro[3.3]heptan-2-yl)-3-chlorophenyl)amino)-5-chloropyrimidin-4-yl)amino)phenyl)dimethylphosphine oxide] |  |  |  |  |  |  | 
0.0016 | 0.033 | 0.01 to 0.05 | 0.01 to 0.05 |  | CP(C)(=O)c1ccccc1Nc1nc(Nc2ccc(N3CCC4(CC3)CC(NC3CCCC3)C4)c(Cl)c2)ncc1Cl [Example 31, (2-((5-chloro-2-((3-chloro-4-(2-(cyclopentylamino)-7-azaspiro[3.5]nonan-7-yl)phenyl)amino)pyrimidin-4-yl)amino)phenyl)dimethylphosphine oxide] |  |  |  |  |  |  | 
0.0015 | 0.028 |  |  |  | Cc1cc(Nc2ncc(Cl)c(Nc3ccccc3P(C)(C)=O)n2)ccc1N1CC2(CC(N)C2)C1 [Example 25, (2-((2-((4-(6-amino-2-azaspiro[3.3]heptan-2-yl)-3-methylphenyl)amino)-5-chloropyrimidin-4-yl)amino)phenyl)dimethylphosphine oxide] | 0.018 | 0.0242 |  |  |  |  | 
